Values of other authors in patent EP0084011B1, “Quinoline carboxylic acid complexes with guanidinium carbonate and guanidine” (Merck & Co., Inc., priority 1982, dated 1983).
In brackets after ≈: the same amount, converted by molar mass.

## CCn1cc(C(=O)O)c(=O)c2cc(F)c(N3CCNCC3)cc21 [Parent, 1-ethyl-6-fluoro-1,4-dihydro-4-oxo-7-(1-piperazinyl)-3-quinoline carboxylic acid]
In water, 25 °C, reported water solubility of the parent compound
  Solubility: 200 µg/mL (≈ 626 µM)
pH range of 6-10, background statement
  water solubility: very low water solubility
